Where a name gives a salt, the structure may show the parent alone.
Tests used:
[1] = MDZ metabolic activity in hepatic microsomes; format: in vitro ADME, mouse; settings: cyp3a (KO/KO)/uPA(+/+)/SCID(+/+) chimeric mice [N2F1] compared with PXB mice; MDZ 50 umol/L, 0.1 mg/mL microsomes, 37° C., 5 minutes; 1'- and 4-hydroxylated metabolites
Method: (§1) On weeks 10 to 11 after transplantation (14-week-old), each of chimeric mice and non-transplanted cyp3a (KO/KO)/uPA(+/+)/SCID(+/+) mice [N2F1] was dissected and thus the liver, the small intestine, and blood were collected. The collected liver and small intestine were cut into appropriate sizes. The resulting pieces were immersed in 1 mL of RNA Later (Life Technologies Corporation, Cat No. AM7020), stored at 4° C. overnight, and then stored at −80° C. In addition, portions of the liver and the small intestine were embedded in an OCT compound (Tissue-Tek) for the preparation of frozen sections, and then cryopreserved with liquid nitrogen. Microsomes were prepared from the remaining small intestine and liver portions by procedures such as centrifugation. The thus prepared microsomes were stored at −80° C.
(§2) MDZ metabolic activity was determined using microsomes from the liver and the small intestine from each mouse prepared in Example 2 above. In an experiment using hepatic microsomes, MDZ with a final concentration of 50 umol/L was incubated in hepatic microsomes with a final concentration of 0.1 mg/mL at 37° C. for 5 minutes. […] 1′- and 4-hydroxylated metabolites of MDZ were measured using LC-MS/MS.

[2] = MDZ metabolic activity in small intestinal microsomes; format: in vitro ADME, mouse; settings: MDZ 50 umol/L, 0.5 mg/mL microsomes, 37° C., 10 minutes
Method: as §1, §2

[3] = Metabolic studies for nefazodone hydrochloride (metabolite profiles in blood plasma and urine after peroral administration); format: in vivo, mouse
Method: Eight (8) mg of free/mL nefazodone hydrochloride suspended in 0.5% methylcellulose (resulting in a dose of […].) was forcibly administered perorally twice in a volume of 5 mL/kg b.w. at each instance to four (two male and two female mice) cyp3a (KO/KO)/uPA(+/+)/SCID(+/+) mice [N4F1] (week 8 after transplantation (11-week-old)) obtained in Example 8 above by transplantation of human hepatocytes.
Immediately after the first peroral administration of nefazodone hydrochloride, the animals were housed in metabolic cages. Urine was sampled at a time 0 to 8 hours after administration and at a time 8 to 24 hours after administration, at room temperature. After the sampling of urine, the 2nd peroral administration of nefazodone hydrochloride was performed. One (1) hour after administration, blood, small intestine, and liver samples were collected. Immediately after blood collection, centrifugation (1000×g, 4° C. for 10 minutes) was performed to prepare blood plasma. Immediately after collection, urine and blood plasma were stored at −80° C. The PXB mice and the SCID(+/+) mice were similarly treated, and thus blood plasma and urine samples were obtained.
Acetonitrile was added to the thus obtained blood plasma and urine, in an amount equivalent thereto, for deproteinization. Centrifugal filtration (Ultrafree-MC centrifugal filtration tube; 0.45 μm, 9500×g, 2 min, 4° C.) was then performed. The thus obtained filtrates were designated as analytical samples.

[4] = PXB mice, 10 mg free/kg peroral, 1 hour after 2nd administration
[5] = SCID(+/+) mice, 10 mg free/kg peroral, 1 hour after 2nd administration
[6] = cyp3a (KO/KO)/uPA(+/+)/SCID(+/+) chimeric mice [N4F1], 10 mg free/kg peroral, 1 hour after 2nd administration

## Cc1ncc2n1-c1ccc(Cl)cc1C(c1ccccc1F)=NC2 [MDZ, Midazolam]
[1]
  MDZ metabolic activity in hepatic microsomes: almost the same
[2]; cyp3a (KO/KO)/uPA(+/+)/SCID(+/+) chimeric mice [N2F1] compared with PXB mice
  MDZ metabolic activity in small intestinal microsomes: lower than that of the PXB mice
[2]; cyp3a (KO/KO)/uPA(+/+)/SCID(+/+) chimeric mice [N2F1] compared with non-transplanted cyp3a (KO/KO)/uPA(+/+)/SCID(+/+) mice [N2F1]
  MDZ metabolic activity in small intestinal microsomes: almost the same as that of the non-transplanted

## CCc1nn(CCCN2CCN(c3cccc(Cl)c3)CC2)c(=O)n1CCOc1ccccc1 [nefazodone hydrochloride]
[3]; [4]
  metabolites detected in blood plasma: Triazoledione metabolite alone was detected
  unchanged nefazodone in blood plasma: not detected
[3]; PXB mice, 10 mg free/kg peroral, urine 0 to 24 hours after administration
  metabolites detected in urine: metabolite C alone was detected
[3]; [5]
  metabolites detected in blood plasma: Triazoledione metabolite alone was detected
  unchanged nefazodone in blood plasma: not detected
[3]; SCID(+/+) mice, 10 mg free/kg peroral, urine 0 to 24 hours after administration
  metabolites detected in urine: metabolite C alone was detected
[3]; [6]
  human-type metabolites detected in blood plasma, in addition to Triazoledione metabolite: OH-NEF and p-OH-NEF
  unchanged nefazodone in blood plasma: detected
[3]; cyp3a (KO/KO)/uPA(+/+)/SCID(+/+) chimeric mice [N4F1], 10 mg free/kg peroral, urine 0 to 24 hours after administration
  human-type metabolites detected in urine: mCPP and metabolite D
[3]; cyp3a (KO/KO)/uPA(+/+)/SCID(+/+) chimeric mice, unlike PXB mice and SCID(+/+) mice
  metabolic profiles: reflected the human drug-metabolizing system

— patent US9420769B2, “Chimeric non-human animal carrying human hepatocyte” (PHOENIXBIO CO., LTD., priority 2011, dated 2016)
